The test system of this assay is CXCR4 selector in IL2RG locus, CD34+ cells. The assay is described as follows: SMArT-D in CD34+ cells, IL2RG locus, CXCR4 selector. It is filed as cell-based, human. As to conditions: lower dose (80 nM), after washout.

Protocol: CD34+ cells were edited according to a previously optimized protocol (Schiroli et al., 2017). Briefly, 5×10^5 CD34+ cells/ml were stimulated in serum-free StemSpan medium (StemCell Technologies) supplemented with penicillin, streptomycin, glutamine, 1 μM SR-1 (Biovision), 50 μM UM171 (STEMCell Technologies), 10 μM PGE2 added only at the beginning of the culture (Cayman), and human early-acting cytokines (SCF 100 ng/ml, Flt3-L 100 ng/ml, TPO 20 ng/ml, and IL-6 20 ng/ml; all purchased from Peprotech). After 3 days of pre-stimulation, cells were washed with PBS and electroporated using P3 Primary Cell 4D-Nucleofector X Kit and program EO-100 (Lonza). Cells were electroporated with 2.5-1.25 μM of RNPs. Transduction with AAV6 was performed at a dose of 1×10^4 vg/cell 15′ after electroporation. […] Gene editing efficiency was measured from cultured cells in vitro 3 days after electroporation by flow cytometry measuring the percentage of cells expressing the GFP/truncated NGFR/CXCR4 marker or by digital droplet PCR analysis designing primers and probe on the junction between the vector sequence and the targeted locus and on control sequences utilized as normalizer.

`C[C@H]1c2cccc(O)c2C(=O)C2=C(O)[C@]3(O)C(=O)C(C(N)=O)=C(O)[C@@H](N(C)C)[C@@H]3[C@@H](O)[C@@H]21` [doxycycline]: the “CXCR4-overexpressing cells in the most primitive compartment” value was “up to 13%”.
